The values below come from patent US20140011799A1 (Bristol-Myers Squibb Company, priority 2012, published 2014).

One experiment concerns the target T1, hepatic lipase (HL) (Homo sapiens, UniProt P11150).
T1 construct: made in house; host or cells: COS cells (conditioned medium, partially purified)
T1 sequence (P11150 23-499): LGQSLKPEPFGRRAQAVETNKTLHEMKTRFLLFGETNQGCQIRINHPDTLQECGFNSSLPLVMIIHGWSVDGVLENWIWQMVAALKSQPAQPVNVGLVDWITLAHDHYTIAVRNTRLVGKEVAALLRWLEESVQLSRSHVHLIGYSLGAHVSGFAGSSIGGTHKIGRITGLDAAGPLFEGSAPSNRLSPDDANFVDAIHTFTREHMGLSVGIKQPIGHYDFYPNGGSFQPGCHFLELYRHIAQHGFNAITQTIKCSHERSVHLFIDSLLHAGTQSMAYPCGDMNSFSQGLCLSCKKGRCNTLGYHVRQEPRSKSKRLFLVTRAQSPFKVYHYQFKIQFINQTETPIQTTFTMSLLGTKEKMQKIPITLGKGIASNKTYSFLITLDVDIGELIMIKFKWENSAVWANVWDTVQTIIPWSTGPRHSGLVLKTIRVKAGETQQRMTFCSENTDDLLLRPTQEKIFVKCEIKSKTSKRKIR
Description: Hepatic lipase (HL) enzymatic assay, fluorescent substrate A10070 in DMPG vesicles. It is filed as biochemical. Conditions: HL partially purified from conditioned media of COS cells; compound preincubated 30 min at 37° C; read-out: HL IC50. As for the experimental part:
Endothelial lipase (EL) and hepatic lipase (HL) activities were measured using a fluorescent substrate, A10070, (Invitrogen, CA) doped into an artificial vesicle containing DMPG (Avanti Polar Lipids) as the excipient. Vesicles were prepared by combining 571 μL of 29 mM DMPG in a 1:1 mixture of MeOH and CHCl3 with 2000 μL of 1 mM A10070 in a 1:1 mixture of MeOH and CHCl3. The mixture was dried under nitrogen in multiple vials then resuspended in 20 mL total volume of 50 mM HEPES pH 8.0 buffer containing 50 mM NaCl and 0.2 mM EDTA. The sample was allowed to sit at room temperature for 15 min and then was sonicated 3×4 mins on ice with a Branson Sonicator using duty cycle 1. This preparation provides vesicles with a mole fraction of 0.11 for the FRET substrate.
The enzymatic assay was measured using 384-well white Optiplates. Each well contained 20 μL of assay buffer (50 mM HEPES pH 8.0, 50 mM NaCl and 1 mM CaCl2) and 0.25 μL of a DMSO solution containing a compound of interest. EL or HL (10 μL) was added and allowed to incubate with the compound for 30 min at 37° C. The source of EL was conditioned media obtained from HT-1080 cells that were transformed using RAGE technology (Athersys) to overexpress endogenous EL, and HL was partially purified from conditioned media obtained from COS cells overexpressing HL. The reaction was started by the addition of 10 μL of a 1:10 dilution of vesicles. The final total reaction volume was […]. The reaction rates were measured on a Gemini plate reader with an excitation wavelength of 490 nm and an emission wavelength of 530 nm. Readings were taken over a period of 60 minutes, and the slope between 300 and 900 secs of the readout was used to calculate the rate of the reaction.

A further experiment has as its target T2, Endothelial lipase (EL) (Homo sapiens, UniProt Q9Y5X9).
T2 construct: HT-1080 cells that were transformed using RAGE technology (Athersys) to overexpress endogenous EL; endogenous in cells; conditioned medium used
T2 sequence (Q9Y5X9 21-500): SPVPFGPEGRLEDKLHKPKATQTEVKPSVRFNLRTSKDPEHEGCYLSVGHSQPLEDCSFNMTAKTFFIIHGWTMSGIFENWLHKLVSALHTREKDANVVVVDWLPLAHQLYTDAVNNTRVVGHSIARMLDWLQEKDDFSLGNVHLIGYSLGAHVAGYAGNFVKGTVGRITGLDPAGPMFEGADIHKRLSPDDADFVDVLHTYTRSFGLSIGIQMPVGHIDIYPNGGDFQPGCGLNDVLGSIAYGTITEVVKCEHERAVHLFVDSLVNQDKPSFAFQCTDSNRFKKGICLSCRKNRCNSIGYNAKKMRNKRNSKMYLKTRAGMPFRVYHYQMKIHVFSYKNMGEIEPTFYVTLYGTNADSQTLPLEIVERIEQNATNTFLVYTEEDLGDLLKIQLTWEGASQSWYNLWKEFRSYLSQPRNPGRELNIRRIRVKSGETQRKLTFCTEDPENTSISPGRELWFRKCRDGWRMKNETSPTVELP
Description: Endothelial lipase (EL) enzymatic assay, fluorescent substrate A10070 in DMPG vesicles. The class given is biochemical. Conditions: EL from conditioned media of HT-1080 cells; compound preincubated 30 min at 37° C; read-out: EL IC50. In short, it runs like this: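 EL from conditioned medium of HT-1080 cells engineered to overexpress endogenous EL; HL partially purified from conditioned medium of HL-overexpressing COS cells. Enzyme preincubated with compound 30 min at 37° C in 50 mM HEPES pH 8.0, 50 mM NaCl, 1 mM CaCl2; DMPG vesicles carrying FRET substrate (0.11 mole fraction) then added.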

Regarding `COc1cc(-c2ccc3nc(C(c4nnc(CNS(N)(=O)=O)o4)S(C)(=O)=O)sc3c2)ccn1` (centres unmarked) [Example 131, N-((5-((6-(2-methoxy-4-pyridinyl)-1,3-benzothiazol-2-yl)(methylsulfonyl)methyl)-1,3,4-oxadiazol-2-yl)methyl)sulfamide], the figures for the IC50 on hepatic lipase (HL) and on Endothelial lipase (EL) were 102 nM and less than 10 nM, respectively.
The matching figures for `CS(=O)(=O)C(c1nnc(CNS(N)(=O)=O)o1)c1nc2ccc(-c3cnn(CCN4CCOCC4)c3)cc2s1` (centres unmarked) [Example 132, N-((5-((methylsulfonyl)(6-(1-(2-(4-morpholinyl)ethyl)-1H-pyrazol-4-yl)-1,3-benzothiazol-2-yl)methyl)-1,3,4-oxadiazol-2-yl)methyl) sulfamide]: 22300 nM and 32 nM.
Turning to `CS(=O)(=O)C(c1nnc(CNS(N)(=O)=O)o1)c1nc2ccc(-c3ccc(O)nc3)cc2s1` (centres unmarked) [Example 133, N-((5-((methylsulfonyl)(6-(6-oxo-1,6-dihydro-3-pyridinyl)-1,3-benzothiazol-2-yl)methyl)-1,3,4-oxadiazol-2-yl)methyl) sulfamide], the IC50 at hepatic lipase (HL) was determined as 467 nM; at Endothelial lipase (EL), 16 nM.
On to `NS(=O)(=O)NCc1nnc(C(c2nc3ccc(-c4ccc(C(=O)N5CCOCC5)cc4)cc3s2)S(=O)(=O)CCNC(=O)OCc2ccccc2)o1` (centres unmarked) [Example 134, benzyl {2-[({6-[4-(4-morpholinylcarbonyl)phenyl]-1,3-benzothiazol-2-yl}{5-[(sulfamoylamino)methyl]-1,3,4-oxadiazol-2-yl}methyl)sulfonyl]ethyl} carbamate], for which the IC50 on hepatic lipase (HL) came to 307 nM; at Endothelial lipase (EL) it was 20 nM.
For the compound `CC1(CS(=O)(=O)C(c2nnc(CNS(N)(=O)=O)o2)c2nc3ccc(-c4ccc(C(=O)N5CCOCC5)cc4)cc3s2)COC1` (centres unmarked) [Example 135, N-((5-((((3-methyl-3-oxetanyl)methyl)sulfonyl)(6-(4-(4-morpholinylcarbonyl)phenyl)-1,3-benzothiazol-2-yl)methyl)-1,3,4-oxadiazol-2-yl)methyl)sulfamide], the IC50 is 91 nM at hepatic lipase (HL) and less than 10 nM on Endothelial lipase (EL).
For `CC(C)Cn1cc(-c2ccc3nc(C(c4nnc(CNS(N)(=O)=O)o4)S(=O)(=O)Cc4ccccc4)sc3c2)cn1` (centres unmarked) [Example 136, N-((5-((benzylsulfonyl)(6-(1-isobutyl-1H-pyrazol-4-yl)-1,3-benzothiazol-2-yl)methyl)-1,3,4-oxadiazol-2-yl)methyl)sulfamide] the same measures were less than 10 nM and less than 10 nM.
With `COc1cc(-c2ccc3nc(C(c4nnc(CNS(N)(=O)=O)o4)S(=O)(=O)Cc4ccccc4)sc3c2)ccn1` (centres unmarked) [Example 137, N-((5-((benzylsulfonyl)(6-(2-methoxy-4-pyridinyl)-1,3-benzothiazol-2-yl)methyl)-1,3,4-oxadiazol-2-yl)methyl) sulfamide], the half-maximal inhibitory concentration (IC50) at hepatic lipase (HL) and on Endothelial lipase (EL) was less than 10 nM each time.
`NS(=O)(=O)NCc1nnc(C(c2nc3ccc(-c4cnn(-c5ccc(F)cc5)c4)cc3s2)S(=O)(=O)Cc2ccccc2)o1` (centres unmarked) [Example 138, N-((5-((benzylsulfonyl)(6-(1-(4-fluorophenyl)-1H-pyrazol-4-yl)-1,3-benzothiazol-2-yl)methyl)-1,3,4-oxadiazol-2-yl)methyl)sulfamide]: the IC50 on hepatic lipase (HL) and on Endothelial lipase (EL) was less than 10 nM each time.
As to `NS(=O)(=O)NCc1nnc(C(c2nc3ccc(-c4ccc(F)c(Cl)c4)cc3s2)S(=O)(=O)Cc2ccccc2)o1` (centres unmarked) [Example 139, N-((5-((benzylsulfonyl)(6-(3-chloro-4-fluorophenyl)-1,3-benzothiazol-2-yl)methyl)-1,3,4-oxadiazol-2-yl)methyl) sulfamide], the IC50 at hepatic lipase (HL) and at Endothelial lipase (EL) was less than 10 nM in each case.
For the compound `NS(=O)(=O)NCc1nnc(C(c2nc3ccc(-c4ccc(Cl)c(F)c4)cc3s2)S(=O)(=O)Cc2ccccc2)o1` (centres unmarked) [Example 140, N-((5-((benzylsulfonyl)(6-(4-chloro-3-fluorophenyl)-1,3-benzothiazol-2-yl)methyl)-1,3,4-oxadiazol-2-yl)methy) sulfamide], the IC50 at hepatic lipase (HL) and on Endothelial lipase (EL) was less than 10 nM in each case.
Regarding `CN(C)C(=O)c1ccc(-c2ccc3nc(C(c4nnc(CNS(=O)(=O)NC(=O)OC(C)(C)C)o4)S(=O)(=O)Cc4ccccc4)sc3c2)cc1Cl` (centres unmarked) [Example 141, tert-butyl (((5-((benzylsulfonyl)(6-(3-chloro-4-(dimethylcarbamoyl)phenyl)-1,3-benzothiazol-2-yl)methyl)-1,3,4-oxadiazol-2-yl)methyl)sulfamoyl) carbamate], the IC50 is 50 nM on hepatic lipase (HL) and less than 10 nM at Endothelial lipase (EL).
As for `CC(C)(C)OC(=O)NS(=O)(=O)NCc1nnc(C(c2nc3ccc(-c4cc(F)cc(Cl)c4)cc3s2)S(=O)(=O)Cc2ccccc2)o1` (centres unmarked) [Example 142, tert-butyl (((5-((benzylsulfonyl)(6-(3-chloro-5-fluorophenyl)-1,3-benzothiazol-2-yl)methyl)-1,3,4-oxadiazol-2-yl)methyl)sulfamoyl)carbamate], the IC50 on hepatic lipase (HL) and at Endothelial lipase (EL) was less than 10 nM throughout.
`NS(=O)(=O)NCc1nnc(C(c2nc3ccc(-c4cc(Cl)cc(Cl)c4)cc3s2)S(=O)(=O)Cc2ccccc2)o1` (centres unmarked) [Example 143, N-((5-((benzylsulfonyl)(6-(3,5-dichlorophenyl)-1,3-benzothiazol-2-yl)methyl)-1,3,4-oxadiazol-2-yl)methyl) sulfamide]: the IC50 at hepatic lipase (HL) and at Endothelial lipase (EL) was less than 10 nM throughout.
For the compound `NS(=O)(=O)NCc1nnc(C(c2nc3ccc(-c4cc(F)cc(Cl)c4)cc3s2)S(=O)(=O)Cc2ccccc2)o1` (centres unmarked) [Example 144, N-((5-((benzylsulfonyl)(6-(3-chloro-5-fluorophenyl)-1,3-benzothiazol-2-yl)methyl)-1,3,4-oxadiazol-2-yl)methyl) sulfamide], the IC50 on hepatic lipase (HL) and at Endothelial lipase (EL) was less than 10 nM throughout.
Take `NS(=O)(=O)NCc1nnc(C(c2nc3ccc(-c4cc(F)nc(F)c4)cc3s2)S(=O)(=O)Cc2ccccc2)o1` (centres unmarked) [Example 145, N-((5-((benzylsulfonyl)(6-(2,6-difluoro-4-pyridinyl)-1,3-benzothiazol-2-yl)methyl)-1,3,4-oxadiazol-2-yl)methyl)sulfamide]: the IC50 on hepatic lipase (HL) was 77 nM; on Endothelial lipase (EL) it was less than 10 nM.
As to `CN(C)C(=O)c1ccc(-c2ccc3nc(C(c4nnc(CNS(N)(=O)=O)o4)S(=O)(=O)Cc4ccccc4)sc3c2)cc1Cl` (centres unmarked) [Example 146, 4-(2-((benzylsulfonyl)(5-((sulfamoylamino)methyl)-1,3,4-oxadiazol-2-yl)methyl)-1,3-benzothiazol-6-yl)-2-chloro-N,N-dimethylbenzamide], the IC50 at hepatic lipase (HL) is 391 nM; on Endothelial lipase (EL), less than 10 nM.

In general, IC50 refers to the concentration needed to halve the response being measured.
